The IC50 is the concentration needed to halve the response being measured. Lower therefore signals greater potency in that assay.

Each structure is given as a SMILES string.

For assay [1], the target named is glutathione-S-transferase (GST, GSTP1). The assay can be described thus: in vitro enzyme activity assay (GSH/CDNB conjugation, absorbance at […] nm). Type of assay: biochemical.
Assay [2] addresses glutathione reductase-1 (GSR, GSR1). Put plainly: in vitro enzyme activity assay (GSSG/NADPH, absorbance at […] nm). In kind it is biochemical.

For the compound `O=C(O)/C=C/c1ccc(O)c(O)c1` [CA, caffeic acid], the IC50 in assay [1] was 95 µM; in assay [2], 70 µM.
